From patent US20190308956A1, “PIPERAZINE DERIVATIVES AS ANTIVIRAL AGENTS WITH INCREASED THERAPEUTIC ACTIVITY” (SERVICIO ANDALUZ DE SALUD, priority 2016, published 2019) come the findings set out here.

As a reminder, the IC50 is the point on the concentration scale where inhibition reaches its midpoint. For orientation: inhibition means the share of the control response that was lost under treatment. What is called CC50 is the concentration that lowers cell viability or growth by half.

For one series, the system named is HAdV5-GFP. Description: Plaque assay, HAdV5-GFP in 293β5 cells. The series is classed as cell-based. The conditions noted are these: for Selectivity Index (SI) HAdV5: ratio CC50 to IC50, HAdV5; for IC50: read-out: IC50 HAdV5; for inhibition at 10 µM: read-out: Percentage of plaque formation inhibition, HAdV5-GFP, 10 μM, 293β5 cell line. The essentials: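 293β5 cells infected with HAdV5-GFP at 0.06 vp/cell for 2 h at 37° C. Then overlaid with agar/EMEM containing compound (5 to 1 μM stated range; screen run at 10 μM). After 7 days at 37° C., GFP plaques imaged and counted relative to DMSO control.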

In another series the test system is HAdV16-GFP. As to the kind of experiment: Plaque assay, HAdV16-GFP in 293β5 cells. The format is cell-based. The conditions noted are these: for Selectivity Index (SI) HAdV16: ratio CC50 to IC50, HAdV16. As for the experimental part:
1.5. Plaque assay. For low MOI infections, active compounds were further evaluated in a plaque assay. 293β5 cells were seeded in 6-well plates at 4×10^5 cells per well in duplicate for each condition. When cells reached 80-90% confluency, they were infected with HAdV5-GFP or HAdV16-GFP (0.06 vp/cell) and rocked for 2 h at 37° C. The inoculum was removed and the cells were washed once with PBS. The cells were then carefully overlaid with 4 ml/well of equal parts of 1.6% […] Difco Agar Noble (Becton, Dickinson & Co, Sparks, MD) and 2× EMEM (BioWhittaker) supplemented with 2x penicillin/streptomycin, 2× L-glutamine and 10% FBS. The mixture also contained compound in concentrations ranging from 5 to 1 μM. Following incubation for 7 days at 37° C., plates were scanned with a Typhoon 9410 imager (GE Healthcare Life Sciences), and plaques were quantified with ImageJ.43

The nature of series [1]: Cytotoxicity assay (alamarBlue cell viability). As to conditions: human, A549 cells, 48 h. The series is classed as cell-based, Human. In short, it runs like this: (§1)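 Actively dividing A549 cells exposed to compounds for 48 h, then alamarBlue (1/10th in culture medium) added for a further 4 h. CC50 taken as concentration giving 50% cytotoxicity; selectivity index = CC50/IC50, with IC50 from HAdV infection inhibition.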
For orientation: Resazurin is reduced to fluorescent resorufin, in cell work by metabolically active cells.

In a further series the test system is A549 cells. As to the kind of experiment: Cytotoxicity assay (alamarBlue cell viability). The format is cell-based, Human. The conditions noted are these: A549 cells, 48 h; read-out: CC50. The essentials:
as §1

A further series deals with wild-type HAdV5. Description: Virus yield reduction (burst assay, TCID50), HAdV5. The conditions noted are these: 50 μM, A549 cells, 48 h, yield with DMSO divided by yield with compound. The series is classed as cell-based. As for the experimental part:
(§2) 1.8. Virus yield reduction. The effect of the active compounds on virus production was evaluated in a burst assay A549 cells were infected with wild-type HAdV5 or HAdV16 (MOI 100) in the presence or absence of 50 μM compounds. After 48 h, cells were harvested and subjected to three rounds of freeze/thaw. Serial dilutions of clarified lysates were titrated on A549 cells and TCID50 values were calculated using an endpoint dilution method.46

The subject of the next series is wild-type HAdV16. Description: Virus yield reduction (burst assay, TCID50), HAdV16. The format is cell-based. The conditions noted are these: 50 μM, A549 cells, 48 h, yield with DMSO divided by yield with compound. As for the experimental part: as §2
The subject of a further series is HCMV (AD169). As to the kind of experiment: HCMV infectivity assay by quantitative PCR. The format is cell-based, human cytomegalovirus. The conditions noted are these: Human betaherpesvirus 5, AD169, MRC5, MRC-5 cells, 72 h, qPCR, read-out: Inhibition of HCMV DNA replication. As for the experimental part:
1.9. HCMV infectivity assay by quantitative PCR. […] After 72 h of incubation at 37° C., DNA was purified from the cell lysate with the QlAamp DNA Mini Kit (QIAGEN, Valencia, Calif.) following the manufacturer's instructions. TaqMan primers and probes for a region of the US28 gene were designed with the GenScript Real-time PCR (TaqMan) Primer Design software (GenScript). Oligonucleotides sequences were CMV-F: 5′-[…]-3′; CMV-R: 5′-[…]-3′; and CMV-Probe: 5′-[…]-3′. Real-time PCR mixtures consisted of 10 μl the purified DNA, CMV-F at a concentration of 100 nM, CMV-R at a concentration of 300 nM, and CMV-Probe at a concentration of 50 nM in a total volume of 12.5 μl and mixed with 12.5 μl of KAPA PROBE FAST qPCR Master Mix (KAPABiosystems, MA). The PCR cycling protocol was 95° C. for 10 min followed by 40 cycles of 95° C. for 30 sec and 58° C. for 60 sec. Human glyceraldehyde-3-phosphate dehydrogenase (GAPDH) was used as internal control. Oligonucleotides sequences for GAPDH and conditions were those previously reported by Rivera et al.44 For quantification, gene fragment from US28 and GAPDH were cloned into the pGEM-T Easy vector (Promega) and known concentrations of template were used to generate a standard curve in parallel for each experiment. All assays were performed in a C1000 Thermal Cycler apparatus (BioRad).
(In general: In qPCR the cycle at which signal appears reflects the starting amount.)

The subject of a further series is wild type HAdV5. Description: HAdV5 DNA quantification by real-time PCR. The series is classed as cell-based. The conditions noted are these: A549, 24 h, A549 cells, 24 h post-infection, qPCR, read-out: Inhibition of HAdV5 DNA replication. As for the experimental part: 1.6. DNA quantification by real-time PCR. For DNA quantification, A549 cells (150,000 cells/well in a 24 wells-plate) were infected with wild type HAdV5 or HAdV16 (100 vp/cell) and incubated for 2 h at 37° C. in complete DMEM. After the incubation, excess virus was removed and the medium was replaced with 500 μl of complete DMEM containing 50 μM of either compounds or the same volume of DMSO (positive control). All samples were done in triplicate. After 24 h of incubation at 37° C., DNA was purified from the cell lysate with the QlAamp DNA Mini Kit (QIAGEN, Valencia, Calif.) following the manufacturer's instructions. TaqMan primers and probes for a region of the HAdV5 hexon were designed with the GenScript Real-time PCR (TaqMan) Primer Design software (GenScript). Oligonucleotides sequences were AdF: 5′-[…]-3′; AdR: 5′-[…]-3′; and AdProbe: 5′-[…]-3′. […]
Human glyceraldehyde-3-phosphate dehydrogenase (GAPDH) gene was used as internal control. Oligonucleotides sequences for GAPDH and conditions were those previously reported by Rivera et al.44 For quantification, gene fragments from hexon and GAPDH were cloned into the pGEM-T Easy vector (Promega) and known concentrations of template were used to generate a standard curve in parallel for each experiment. […]

In the case of `O=C(c1cc2ccccc2o1)N1CCN(C(=O)Nc2ccccc2[N+](=O)[O-])C(c2ccccc2)C1` (centres unmarked) [Compound 64, 4-(Benzofuran-2-carbonyl)-1-[(2-nitrophenyl)aminocarbonyl]-2-phenylpiperazine], in the series with HAdV5-GFP, the “Selectivity Index (SI) HAdV5” value is listed as 53.3, the IC50 was 2500 ± 30 nM and the inhibition at 10 µM was in the range of 96 to 100%. Moreover, in the series on HAdV16-GFP, half-maximal inhibition (IC50) required 2300 ± 170 nM and the “Selectivity Index (SI) HAdV16” value is 57.3. The same compound returned a CC50 at 48 h in series [1] of 132000 ± 6010 nM. For the same compound, the CC50 in the series on A549 cells was determined as 132000 ± 6010 nM. The “Virus yield reduction HAdV5” value in the series on wild-type HAdV5 was 34.5 ± 12.6 fold. For the same compound, the “Virus yield reduction HAdV16” value with wild-type HAdV16 stood at 46.5 ± 10.8 fold. Besides, in the series with HCMV (AD169), the inhibition at 50 µM came to 97.9 ± 0.9%.

As for `O=C(c1cc2ccccc2o1)N1CCN(C(=O)Nc2cc(C(F)(F)F)ccc2Cl)C(c2ccccc2)C1` (centres unmarked) [Compound 65, 4-(Benzofuran-2-carbonyl)-1-[(2-chloro-5-trifluoromethylphenyl)aminocarbonyl]-2 phenylpiperazine], in the series on HAdV5-GFP, the “Selectivity Index (SI) HAdV5” value is 116.2, the IC50 amounted to 1100 ± 50 nM and the inhibition at 10 µM is 96 to 100%. Moreover, in the series with HAdV16-GFP, it took 1800 ± 200 nM to reach half-maximal inhibition (IC50) and the “Selectivity Index (SI) HAdV16” value was determined as 72.7. For the same compound, the CC50 at 48 h in series [1] stood at 131000 ± 17800 nM. In addition, in the series on wild-type HAdV5, the “Virus yield reduction HAdV5” value is recorded as 60.3 ± 15.2 fold. Besides, the “Virus yield reduction HAdV16” value in the series on wild-type HAdV16 was 33.2 ± 7.3 fold. The inhibition at 50 µM in the series with wild type HAdV5 was determined as 33.1 ± 0.5%. In the series with HCMV (AD169), the inhibition at 50 µM is 98.2 ± 0.38%.
